Reference: ChEMBL document CHEMBL4390682, “Purification, structural elucidation, antioxidant capacity and neuroprotective potential of the main polyphenolic compounds contained in Achyrocline satureioides (Lam) D.C. (Compositae)” (Bioorg Med Chem, 2019)
The source made the active and inactive calls. The calls are words filed in the database; no cut-off is given here.

Columns and labels:
[1] = Antioxidant activity in pH 7.4 PBS assessed as reactivity against GSH at 50 uM incubated for 10 mins in presence of HRP and H2O2 in presence of 40 uM GSH by HPLC-DAD and HPLC-MS/MS analysis relative to control; type: functional
[2] = organism: Rattus norvegicus; experiment: Neuroprotective activity in Sprague-Dawley rat CGN cells assessed as protection against H2O2-induced cytotoxicity by measuring increase in cell viability at 5 to 100 uM pre-incubated for 24 hrs before H2O2 stimulation for 24 hrs by MTT assay; type: functional
[3] = test system: Brain; experiment: Antioxidant activity in Sprague-Dawley rat brain homogenates assessed as inhibition of lipoperoxidation incubated for 40 mins by fluorescence based assay; type: functional, tissue-based
[4] = Antioxidant activity in pH 7.4 PBS assessed as H2O2 oxidation at 50 uM incubated for 10 mins in presence of HRP and H2O2 by UV spectroscopy and HPLC analysis relative to control; type: functional
[5] = Antioxidant activity in pH 7.4 PBS assessed as ABTS+ radical scavenger activity incubated under absence of light for 16 hrs; type: functional
[6] = GSH reactivity in pH 7.4 PBS assessed as hydroxylated quercetin formation at 50 uM incubated for 10 mins in presence of HRP and H2O2 in presence of 40 uM GSH by HPLC-DAD and HPLC-MS/MS analysis relative to control; type: physicochemical; conditions: buffer, pH 7.4, 10 min
[7] = GSH reactivity in pH 7.4 PBS assessed as GSH-adduct formation at 50 uM incubated for 10 mins in presence of HRP and H2O2 in presence of 40 uM GSH by HPLC-DAD and HPLC-MS/MS analysis relative to control; type: physicochemical; conditions: buffer, pH 7.4, 10 min

COc1c(-c2ccc(O)c(O)c2)oc2cc(O)cc(O)c2c1=O [3-O-METHYLQUERCETIN]
Activity [1]: Active | Activity [2]: inactive | EC50 [3]: 74 µM | Activity [4]: 0% | EC50 [5]: 45 µM

O=c1c(O[C@@H]2O[C@H](CO)[C@@H](O)[C@H](O)[C@H]2O)c(-c2ccc(O)c(O)c2)oc2cc(O)cc(O)c12 [ISOQUERCETIN]
Activity [1]: Active | Activity [2]: Active | EC50 [3]: 94 µM | Activity [4]: 15% | EC50 [5]: 152 µM

O=c1cc(-c2ccc(O)c(O)c2)oc2cc(O)cc(O)c12 [LUTEOLIN]
Activity [1]: Active | Activity [2]: Active | EC50 [3]: 79 µM | Activity [4]: 25% | EC50 [5]: 46 µM

O=c1c(O)c(-c2ccc(O)c(O)c2)oc2cc(O)cc(O)c12 [QUERCETIN]
Activity [1]: Active | Activity [2]: Active | Activity [6]: Active | EC50 [3]: 5.7 µM | Activity [7]: Active | Activity [4]: 90% | EC50 [5]: 9.6 µM
